Test results reported in publication PMC8466373, “Plant-Derived and Dietary Hydroxybenzoic Acids—A Comprehensive Study of Structural, Anti-/Pro-Oxidant, Lipophilic, Antimicrobial, and Cytotoxic Activity in MDA-MB-231 and MCF-7 Cell Lines” (Nutrients, 2021).
≈ marks a conversion by molar mass, not a printed value. Where “and” joins values, the source holds several entries; their conditions need not be identical. Equal values may be shown once. Read-outs that look alike come from different tables or passages of the source. Marks after values point to notes of the source that are not given here.

Legend:
[1] = CABTS = 7 mM, cited from earlier work; for inhibition: C = 10 μM, t = 7 min, read-out: ABTS radical scavenging activity (%); for IC50: t = 6 min, read-out: ABTS, IC50
[2] = FRAP assay (ferric-reducing antioxidant power); assay type: biochemical; set-up: key: (-): Negative values were obtained for these acids; conditions: concentration of 50 μM, methanolic solutions
Protocol: FRAP assay was carried out as described in [42]. […] After 8 min of incubation at 23 °C, the absorbance at 595 nm was measured against the blank (containing 0.4 mL of methanol instead of the sample). Ferric-reducing antioxidant activity was expressed as Fe(II) ion equivalents (μM) using the calibration curve obtained for FeSO4 (the standard curve equation: y = 3.4303x − 0.1058; R^2 = 0.9984).

[3] = system: Escherichia coli (PCM 2857); assay: MIC by serial dilution in agar medium; assay type: cell-based
Protocol: (§1) The following bacterial strains were used in this study: Escherichia coli (PCM 2857), Pseudomonas aeruginosa (PCM 2720), Bacillus subtilis (PCM 2850), Staphylococcus aureus (PCM 2267), Salmonella enteritidis (NCTC 4776), and Candida albicans (PCM 2566-FY). The microbial strains were bought from the Polish Collection of Microorganisms (Wroclaw, Poland) or the American Type Culture Collection. Bacteria (0.1 mL of the reconstituted suspension) were seeded onto sterile Mueller–Hinton agar plates (Biomaxima), to which previously suitable amounts of the tested compounds were added to give the desired concentration.
(§2) The MIC (minimal inhibitory concentration) was determined by serial dilution of the tested compound in an agar medium, to which the appropriate inoculum of microorganisms was then added and incubated. Escherichia coli, Pseudomonas aeruginosa, Staphylococcus aureus, Bacillus subtilis, Salmonella enteritidis, and Candida albicans were grown overnight and then resuspended in physiological saline to an optical density at 600 nm (OD = 600) of 0.60, corresponding to 5.0 × 10^8 CFU/mL. Bacteria (0.1 mL of the reconstituted suspension) were seeded onto sterile Mueller–Hinton agar plates, to which previously suitable amounts of the tested compounds were added to reach the desired concentration. Tested chemicals were dissolved in DMSO solution. Negative controls were agar plates, to which DMSO was added, while positive controls were plates with gentamycin (in the case of bacteria) or flucanozole (in the case of fungi). The plates were incubated at 37 °C for 24 h. The lowest concentration without visible bacterial growth was determined as the MIC.

[4] = system: Bacillus subtilis (PCM 2850); assay: MIC by serial dilution in agar medium; assay type: cell-based
Protocol: as §1, §2

[5] = system: Candida albicans (PCM 2566-FY); assay: MIC by serial dilution in agar medium; assay type: cell-based
Protocol: as §1, §2

[6] = system: Pseudomonas aeruginosa (PCM 2720); assay: MIC by serial dilution in agar medium; assay type: cell-based
Protocol: as §1, §2

[7] = system: Staphylococcus aureus (PCM 2267); assay: MIC by serial dilution in agar medium; assay type: cell-based
Protocol: as §1, §2

[8] = Cytotoxicity, neutral red (NR) assay; assay type: cell-based, human; conditions: human, 48 h treatment, neutral red assay
Protocol: Briefly, MCF-7 cells were cultured in EMEM (Biological Industries, Israel) medium supplemented with 10% fetal calf serum (Gibco). MDA-MB-231 cells were cultured in Leibovitz‘s L15 (Biological Industries, Beit HaEmek, Israel) medium supplemented with 10% fetal calf serum (Gibco). The MCF-7 cells were incubated in a 5% CO2 atmosphere at 37 °C, whereas the MDA-231 cells were incubated in a 100% air atmosphere at 37 °C.
Cytotoxicity evaluation was conducted to assess the impact of hydroxybenzoic acids on the proliferation of MCF-7 and MDA-MB-231 cells, which was measured via neutral red (NR) assay. In brief, cells were seeded in 96-well microplates (TPP, Switzerland) at a density of 2 × 10^4 cells/well in 100 μL of culture medium. At least three independent experiments in six replicate wells were conducted per concentration. Twenty-four hours after cell seeding, cells were treated with increasing concentrations of hydroxybenzoic acids (0.02–5 mM) for forty-eight hours. After treatment, cells were incubated for 3 h at 37 °C with 100 µL of neutral red solution (stock solution of NR) (Sigma-Aldrich), and then 5 mg/mL of PBS was diluted 1:100 in cell culture medium, incubated for 12 h at 37 °C, and centrifuged to remove any undissolved NR powder. […] After 15 min of gentle shaking, optical density was read at 540 nm with an Infinite M200 plate reader spectrophotometer (Tecan, Austria).

DPPH assay = assay type: biochemical; conditions: methanolic solutions, 60 min of reaction time
Protocol: DPPH assay was measured according to the method described by Rice-Evans. Appropriate volumes of methanolic solutions of the tested hydroxybenzoic acids (C = 30 μM) were mixed with methanol in test tubes to prepare a series of solutions of various concentrations (final volume 1 mL). Then, 2 mL of methanolic solution of DPPH^• (C = 60 μM) was added to each tube; the control contained methanol instead of the sample. The tubes with reaction mixtures were capped, vortexed, and left to stand for 60 min at 23 °C in the dark. The absorbance of the solutions was measured by the use of a Cary 5000 UV–Vis spectrophotometer (Santa Clara, CA, USA) at λ = 516 nm against pure methanol. […] The concentration of the tested hydroxybenzoic acids was plotted against the %I, and the IC50 values (antioxidant concentration that inhibited 50% of DPPH^• radicals) were calculated from the obtained scavenging curves.

ABTS assay = assay type: biochemical; conditions: 50 μM, methanolic solutions, 7 min of reaction time
Protocol: ABTS assay was conducted according to the procedure of Re et al.. […] The absorbance of the solutions was measured with a UV–Vis spectrophotometer at 734 nm against methanol (the blank). The ability to scavenge ABTS^•+ cation radicals was expressed as the %I of ABTS^•+ and calculated according to the aforementioned equation.

[9] = read-out: Cytotoxicity (mM) in Cell Line MCF-7, IC50
[10] = read-out: Cytotoxicity (mM) in Cell Line MDA-MB-231, IC50
[11] = MCF-7 cells (breast adenocarcinoma), read-out: Cytotoxicity (mM) in Cell Line MCF-7, IC50
[12] = MDA-MB-231 cells (breast adenocarcinoma), read-out: Cytotoxicity (mM) in Cell Line MDA-MB-231, IC50

| Structure (SMILES) | MIC ([3]; read-out: MIC) | MIC ([4]; read-out: MIC) | MIC ([5]; read-out: MIC) | MIC ([6]; read-out: MIC) | MIC ([7]; read-out: MIC) | inhibition [1] | IC50 ([1]; ref 68) | IC50 ([1]; ref 73) | FRAP [2] | MIC [3] | MIC [4] | MIC [5] | MIC [6] | MIC [7] | IC50 at 48 h [8, 9] | IC50 at 48 h [8, 10] | IC50 (DPPH assay) | Inhibition of ABTS•+ radicals (%I) (ABTS assay) | IC50 at 48 h [8, 11] | IC50 at 48 h [8, 12] |
| --- | --- | --- | --- | --- | --- | --- | --- | --- | --- | --- | --- | --- | --- | --- | --- | --- | --- | --- | --- | --- |
| O=C(O)c1ccc(O)c(O)c1 [3,4-DHB, 3,4-dihydroxybenzoic acid] | – | – | – | – | – | ~38% | 10.1 µM | 20.7 µM | 44.22 µM Fe^2+ and 44.22 ± 9.38 µM Fe^2+ | 2000 µg/mL (≈ 13 mM) | 2000 µg/mL (≈ 13 mM) | 2000 µg/mL (≈ 13 mM) | 2000 µg/mL (≈ 13 mM) | 2000 µg/mL (≈ 13 mM) | > 5 mM | > 5 mM | 5.24 ± 0.95 µM | 74.51% | – | – |
| O=C(O)c1cccc(O)c1O [2,3-DHB, 2,3-Dihydroxybenzoic acid] | 5000 µg/mL (≈ 32.4 mM) | 5000 µg/mL (≈ 32.4 mM) | 5000 µg/mL (≈ 32.4 mM) | 5000 µg/mL (≈ 32.4 mM) | 5000 µg/mL (≈ 32.4 mM) | – | – | 10.7 µM | 173.79 µM Fe^2+ and 173.79 ± 39.06 µM Fe^2+ | – | – | – | – | – | – | – | 5.86 ± 0.64 µM | 86.40% | > 5 mM | 4.1 mM |
| O=C(O)c1cc(O)c(O)c(O)c1 [3,4,5-THB, 3,4,5-trihydroxybenzoic acid] | 3000 µg/mL (≈ 17.6 mM) | 3000 µg/mL (≈ 17.6 mM) | 3000 µg/mL (≈ 17.6 mM) | 4000 µg/mL (≈ 23.5 mM) | 6000 µg/mL (≈ 35.3 mM) | ~80% | – | 4.33 µM | 158.10 µM Fe^2+ and 158.10 ± 14.81 µM Fe^2+ | – | – | – | – | – | 0.44 mM | 0.36 mM | 2.42 ± 0.08 µM | 79.50% | – | – |

Second part, led by results:

| MIC ([3]; read-out: MIC) | MIC ([4]; read-out: MIC) | MIC ([5]; read-out: MIC) | MIC ([6]; read-out: MIC) | MIC ([7]; read-out: MIC) | Structure (SMILES) | inhibition [1] | IC50 ([1]; ref 68) | IC50 ([1]; ref 73) | FRAP [2] | MIC [3] | MIC [4] | MIC [5] | MIC [6] | MIC [7] | IC50 at 48 h [8, 9] | IC50 at 48 h [8, 10] | IC50 (DPPH assay) | Inhibition of ABTS•+ radicals (%I) (ABTS assay) | IC50 at 48 h [8, 11] | IC50 at 48 h [8, 12] |
| --- | --- | --- | --- | --- | --- | --- | --- | --- | --- | --- | --- | --- | --- | --- | --- | --- | --- | --- | --- | --- |
| 2000 µg/mL (≈ 13 mM) | 2000 µg/mL (≈ 13 mM) | 2000 µg/mL (≈ 13 mM) | 3000 µg/mL (≈ 19.5 mM) | 2000 µg/mL (≈ 13 mM) | O=C(O)c1cc(O)cc(O)c1 [3,5-DHB, 3,5-dihydroxybenzoic acid] | – | – | 41.9 µM | (-) * | – | – | – | – | – | – | – | > 1000 µM | 60.39% | > 5 mM | > 5 mM |
| 3000 µg/mL (≈ 19.5 mM) | 3000 µg/mL (≈ 19.5 mM) | 5000 µg/mL (≈ 32.4 mM) | 5000 µg/mL (≈ 32.4 mM) | 5000 µg/mL (≈ 32.4 mM) | O=C(O)c1cc(O)ccc1O [2,5-DHB, 2,5-dihydroxybenzoic acid] | – | ~6.5 µM | 15.6 µM | 236.00 µM Fe^2+ and 236.00 ± 6.31 µM Fe^2+ | – | – | – | – | – | – | – | 4.99 ± 0.79 µM | 80.11% | > 5 mM | 4.39 mM |
| 3000 µg/mL (≈ 19.5 mM) | 3000 µg/mL (≈ 19.5 mM) | 3000 µg/mL (≈ 19.5 mM) | 4000 µg/mL (≈ 26 mM) | 5000 µg/mL (≈ 32.4 mM) | O=C(O)c1c(O)cccc1O [2,6-DHB, 2,6-dihydroxybenzoic acid] | – | – | – | (-) * | – | – | – | – | – | – | – | 209 ± 0.98 µM | 8.12% | > 5 mM | 3.97 mM |
